Entries after “also recorded” stand apart in the source; their conditions may differ.
Key:
Type in all cases: in vivo, zebrafish
kmt2d-CRISPR embryos = assay: Brain cell proliferation (pHH3 immunostaining) in kmt2d-mosaic mutants; details: 100 nM, 2 dpf, listed as dmDf
Source text: (§1) Intellectual disability represents a major phenotype in KS, with some studies reporting almost 90% of patients to be affected (see, Wessels, M. W., et al. Clin Dysmorphol 11, 95-102 (2002)). […] Previous studies have shown that defects in proliferation in the developing zebrafish brain can be a proxy for neurodevelopmental and neurocognitive traits, especially in the context of microcephaly (see, Borck, G. et al. Genome Res 25, 609 (2015); Brooks, S. S. et al. Genetics 198, 723-33 (2014); O'Rawe, J. A. et al. Am J Hum Genet 97, 922-32 (2015); Wortmann, S. B. et al. Am J Hum Genet 96, 245-57 (2015)), a phenotype reported commonly in KS (see, Matsumoto, N. & Niikawa, N. Am J Med Genet C Semin Med Genet 117C, 57-65 (2003)).
(§2) For convergence and extension (CE) phenotyping, embryos were scored as described (see, Leitch, C. C. et al. Nat Genet 40, 443-8 (2008)) at the 8-10 somite stage, and images were captured using an AZ100 microscope and NIS Elements software (Nikon). […] The distance between Meckel's (MK) and ceratohyal (CH) cartilages was measured on ventral bright field images with Image J (NIH). […] Fluorescence signal on embryo heads was imaged with the Nikon AZ100 microscope and DS-Qi1MC digital camera using […] Z-stacks to generate extended depth of focus images. Cell numbers were quantified using the ImageJ ICTN plugin (NIH). […]

[1] = system: kmt2d+/−×kmt2d+/− progeny; assay: Jaw defect in stable kmt2d mutant intercross progeny; details: 100 mM dmDf, 5 dpf
Source text: FIG. 12: Treatment with dmDf rescues the defects of stable kmt2d mutant. kmt2d+/− adults were in-crossed and the embryos were then collected at 1 dpf, 2 dpf and 5 dpf to assess dmDf efficacy. […] Error bars show SEM (standard error of the mean).
Although the small molecule testing data in CRISPR F0 mosaic models are consistent with morphant phenotypes (and rescue), experiments recognized the necessity of testing the potential efficacy of dmDf in a stable genetic model that is a better genotypic proxy to human patients. […] In addition to examining proliferation of cells in the brain, experiments assessed whether neural differentiation is affected (see, Van Laarhoven, P. M. et al. Hum Mol Genet 24, 4443-53 (2015)).
as §2

rap1-CRISPR embryos = assay: Brain cell proliferation (pHH3 immunostaining) in rap1-mosaic mutants; details: 100 nM, 2 dpf, listed as dmDf
Source text: as §1, §2

kmt2d morphants = assay: Brain cell proliferation (pHH3 immunostaining) in kmt2d morphants; details: 100 nM, 2 dpf, listed as dmDf
Source text: as §1, §2

pMEK1/2 = assay: Western blot of pMEK1/2 in head lysate of 5 dpf embryos; details: 100 nM or 500 nM
Method: FIG. 7: dmDf attenuates hyperactive MEK signaling in vivo. (a) Western blot analysis for the level of pMEK1/2 from the head lysate of 5 dpf zebrafish embryos. Depletion of kmt2d (lane 4) elevates the abundance of pMEK1/2 in comparison to control embryos (lane 1). […] (b) Summary of the relative levels of pMEK1/2 from three independent experiments. *p<0.05 (n=3). (c) kmt2d morphants were treated with serially increasing concentrations of dmDf. The embryos were scored for CE phenotypes as described earlier (n>25 for each concentration. (d) The distance between MK and CH cartilages was measured from the same embryos as in (c). *p<0.05; **p<0.01. Error bars show SEM (standard error of the mean).
The phenotypic rescue of the zebrafish KS models by dmDf predicts a successful attenuation of hyperactive MEK signaling. To test this hypothesis directly, experiments were conducted that suppressed kmt2d, harvested and pooled protein from embryo heads (n=20/condition) and measured the abundance of phosphorylated (activated) MEK1/2 (pMEK1/2).
Zebrafish larvae (5 dpf; n=20) were decapitated and heads were homogenized with RIPA buffer (50 mM NaCl, 1% NP40, 50 mM Tris-HCl pH 7.5, 0.1% SDS, 0.5% Na deoxycholate, 1 mM Na3VO4, and 1 mM NaF). […]

In the case of `CC(C)c1nc(-c2cccc(NS(=O)(=O)c3c(F)cccc3F)c2F)c(-c2ccnc(N)n2)s1` [Compound 8, desmethyl-Dabrafenib], the “total number of proliferating (pHH3+) cells in brain” value (shortened to “total number of proliferating”) (kmt2d-CRISPR embryos) is reported as “can be rescued; also recorded: restored the total number of proliferating cells to wild type levels”, the “mandibular length / jaw defect” value [1] is reported as “rescues significantly; also recorded: rescue of the mandibular length” and the “total number of proliferating” value (rap1-CRISPR embryos) is reported as “can be rescued; also recorded: restored the total number of proliferating cells to wild type levels”. The “total number of proliferating” value (kmt2d morphants) was “significantly increases pHH3+ proliferating cells; also recorded: restored the total number of proliferating cells to wild type levels”, the “abundance of pMEK1/2” value (pMEK1/2; kmt2d suppressed, 5 dpf heads, listed as dmDf) was “attenuates hyperactivation of MEK1/2; also recorded: restored the abundance of pMEK1/2 to levels indistinguishable from wild type embryos” and the “abundance of pMEK1/2” value (pMEK1/2; uninjected embryos) was “neither concentration had an appreciable effect”.
